The source of these data is PubChem BioAssay (NCI).

Test systems include DLD-1 colon; HOP-18 NSCLC; KM20L2 colon; LXFL 529 NSCLC; M19-MEL melanoma; SN12C renal; SNB-78 CNS; HS 578T breast; MDA-N.
What all share (experiment): inhibition of tumour cell growth, NCI panel, 48 h

Where “and” joins values, the source holds several entries; their conditions need not be identical. Identical values can stand only once.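 Interpolation was linear, between the two tested concentrations surrounding the appropriate level; five concentrations were tested over 48 hours in 96-well plates. GI50 = concentration required for 50% inhibition of growth. TGI is the concentration that stops growth completely.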

Turning to `CN1N=CSC12C(=O)N(c1ccc(Cl)cc1)C(=O)N2c1ccc(Cl)cc1` (centres undefined), the TGI was over 100 µM with DLD-1 colon; 69.7 µM in the experiment on HOP-18 NSCLC; over 100 µM with KM20L2 colon; over 100 µM with LXFL 529 NSCLC; over 100 µM with M19-MEL melanoma; over 100 µM in the experiment on SN12C renal. This compound also had a TGI in the experiment on SNB-78 CNS of over 100 µM.

In the case of `CCCCON(OC(=O)c1ccccc1)C(=O)c1ccccc1`, in the experiment on HS 578T breast, the GI50 was over 100 µM and the TGI was over 100 µM. In addition, in the experiment with SN12C renal, the GI50 was over 100 µM and the TGI is over 100 µM.

Regarding `O=C1c2ccccc2-c2c1c1ccccc1c(=O)n2CCCCNCCCn1c2c(c3ccccc3c1=O)C(=O)c1ccccc1-2`, in the experiment with HS 578T breast, the GI50 was 0.822 µM and the TGI is 16 µM. In the experiment with SN12C renal, the GI50 is 0.158 µM and the TGI was 1.13 µM.

Consider `COc1cc(C(=O)/C=C/c2c(C)n([O-])c3ccc(C)cc3[n+]2=O)cc(OC)c1OC`, for which, in the experiment on HS 578T breast, the GI50 was 14.7 µM and the TGI amounted to 60.7 µM. In the experiment on SN12C renal, this compound yielded a TGI of 35.7 µM.

Regarding `CC(=O)N[C@@H](Cc1ccc(OP(=O)(O)O)cc1)C(=O)N[C@H]1CCC(=O)N2CCC[C@@H](C(=O)NCc3ccc(Cl)cc3)N2C1=O`, in the experiment with HS 578T breast, the GI50 was over 25 µM and the TGI is over 25 µM. In addition, in the experiment with SN12C renal, the GI50 was over 25 µM and the TGI is over 25 µM.

As to `N#Cc1c(-c2ccccc2)nc(SCC2CO2)nc1N1CCOCC1` (centres undefined), the GI50 in the experiment on HS 578T breast is 1.93 µM; with SN12C renal, 15.3 µM. Further, the TGI was 11.8 µM in the experiment with HS 578T breast and over 100 µM in the experiment with SN12C renal.

For the compound `CN(C)CCOc1ccc(-c2nc(-c3ccc4c(c3)CC/C4=N\O)c(-c3ccncc3)[nH]2)cc1`, in the experiment with HS 578T breast, the GI50 was 3.96 µM and 25.7 µM; the TGI is 9.4 µM and 65.5 µM. Moreover, in the experiment with SN12C renal, the GI50 is 4.68 µM and 9.41 µM; the TGI is 8.83 µM and 25.9 µM.

Take `COc1ccc2[nH]c(=O)c3c4ccccc4cn3c2c1`: in the experiment on HS 578T breast, the GI50 was 0.25 µM and the TGI came out at 0.775 µM. In addition, in the experiment on SN12C renal, the GI50 was 0.6 µM and the TGI was determined as 7.17 µM.

Consider `Cc1cc2nc(C(C)C(=O)c3ccc(Cl)cc3)c(=O)[nH]c2cc1C` (centres undefined), for which the TGI with HS 578T breast is over 100 µM; with MDA-N, 40.4 µM; in the experiment on SN12C renal, over 100 µM.

Regarding `COc1cc(C2c3[nH]c4ccccc4c3C[C@H]3COC(=O)N23)cc(OC)c1OC` (some centres undefined), the values for the TGI in the experiment on HS 578T breast, in the experiment on MDA-N and in the experiment on SN12C renal were 0.0814 µM, 0.0492 µM and over 100 µM, respectively. In the experiment with SN12C renal, the GI50 was 0.0471 µM.

Turning to `FC(F)(F)Oc1cccc(-c2cnc3ccc(-c4ccncc4)nn23)c1`, the GI50 was 1.21 µM in the experiment with HS 578T breast and 1.56 µM with SN12C renal. The TGI in the experiment with HS 578T breast is 4.24 µM; with SN12C renal, over 100 µM.

Take `CC(=O)NCCc1c2c(c3nccc4c3c1Nc1ccccc1-4)OCS2`: the GI50 is 8.19 µM in the experiment with HS 578T breast, 1.45 µM in the experiment with MDA-N and 0.741 µM with SN12C renal. For the same compound, the TGI stood at 37 µM with HS 578T breast, 15.5 µM in the experiment on MDA-N and 4.79 µM with SN12C renal.

`CC12CCC3C(CCC4Cc5[nH]c6ccccc6c5CC43C)C1CCC2O` (centres undefined): in the experiment with HS 578T breast, the GI50 was 0.362 µM and the TGI was 1.88 µM. For the same compound, in the experiment with SN12C renal, the GI50 was 4.09 µM and the TGI was over 100 µM.

Consider `CN(Cc1cnc2nc(N)nc(N)c2n1)c1ccc(C(=O)NC(CCC(=O)O)C(=O)O)cc1C(F)(F)F` (centres undefined), for which the TGI in the experiment on HS 578T breast is over 100 µM.

Take `O=C(Nc1ccc(Cl)c(Cl)c1)c1cccc(NC2=C(Cl)C(=O)N(Cc3ccccc3)C2=O)c1`: in the experiment on HS 578T breast, the GI50 was 45.4 µM and the TGI is over 100 µM. For the same compound, in the experiment on SN12C renal, the GI50 is 52.9 µM and the TGI is over 100 µM.

`NCCNc1c2c(c(NCCN)c3c(CO)c[nH]c13)C(=O)c1ccccc1C2=O`: in the experiment on HS 578T breast, the GI50 is 3.27 µM and the TGI is 38.9 µM. Besides, in the experiment with SN12C renal, the GI50 is 1.59 µM and the TGI amounted to 12.8 µM.

On to `Cc1ccc2c(c1)C(C)Cc1c(ncnc1-n1cnc3ccccc31)N2C` (centres undefined), for which the figures for the GI50 in the experiment with HS 578T breast and with SN12C renal were 0.376 µM and 0.915 µM, respectively. Further, the TGI with HS 578T breast worked out at 28.9 µM; in the experiment with SN12C renal, 21.9 µM.

With `Cc1c(N2CCCC2)cc2c(c1NC(=O)c1ccccc1Cl)C(C)(C)CC2(C)C`, the values for the TGI in the experiment with HS 578T breast, with MDA-N and in the experiment with SN12C renal were 38.4 µM, 28.5 µM and 33.2 µM, respectively.

Regarding `CCOC(=O)c1ccc2[nH]c(-c3ccc(S(=O)(=O)F)cc3)cc(=O)c2c1`, the TGI in the experiment on HS 578T breast, in the experiment with MDA-N and with SN12C renal was over 100 µM each time.

With `FC(F)(F)c1nc(N2CCCC2)ncc1-c1nnnn1-c1ccc(Cl)cc1`, the GI50 was 21.2 µM with HS 578T breast and 26.3 µM with SN12C renal. The TGI in the experiment with HS 578T breast and in the experiment with SN12C renal was over 100 µM throughout.

Take `Clc1ncnc(Cl)c1Cl`: the TGI in the experiment with HS 578T breast, in the experiment with MDA-N and with SN12C renal was over 100 µM throughout.

`CCc1nc(N)nc(N)c1-c1ccc(NCCN)c([N+](=O)[O-])c1`: the TGI in the experiment with HS 578T breast, in the experiment on MDA-N and in the experiment with SN12C renal was over 100 µM each time.

With `COc1cccc(C2c3cc4c(cc3OC(C)(N3CCCC3)C2C)OCO4)c1OC` (centres undefined), the TGI turned out to be 52.5 µM in the experiment on HS 578T breast, 34.7 µM in the experiment on MDA-N and 41.6 µM in the experiment with SN12C renal.

In the case of `COc1ccc(C2CC(c3cc(OC)c(OC)c(OC)c3)=NO2)cc1OCCCCOc1cc2c(cc1OC)C(=O)N1CCC[C@H]1C=N2` (some centres undefined), in the experiment on HS 578T breast, the GI50 was 1.1 µM and the TGI was 3.82 µM. Besides, in the experiment with SN12C renal, the GI50 was 1.58 µM and the TGI turned out to be 3.31 µM.

In the case of `COC(=O)CCC(=O)C(=O)OC`, the GI50 is 26600 µM with HS 578T breast and 21500 µM in the experiment on SN12C renal. The values for the TGI with HS 578T breast and in the experiment on SN12C renal were 97100 µM and 62100 µM, respectively.

In the case of `Cc1ccc([N+](=O)[O-])cc1NC(=O)Nc1cccc(F)c1`, in the experiment on HS 578T breast, the GI50 was 7.92 µM and the TGI came to 45.3 µM. For the same compound, in the experiment with SN12C renal, the GI50 was 5.18 µM and the TGI is over 100 µM.
